This data set has as its system CCRIS mutagenicity, Ames/micronucleus/aberration tests. The experiment in a line: CCRIS mutagenicity studies. The following applies: Test System: AMES SALMONELLA TYPHIMURIUM
The mark [1] stands for this setting: Strain/Indicator: TA98, Metabolic Activation: NONE, Method: STANDARD PLATE.

Here are results for four molecules from PubChem BioAssay AID1259407 (Chemical Carcinogenesis Research Information System (CCRIS), 2018).

The source made the active and inactive calls. How the calls were made is not given here.

In the case of `CC(=O)Nc1ccc2[nH]c3ccccc3c2c1[N+](=O)[O-]`, the mutagenic call reads like this: under setting [1], “active; positive”; (Strain/Indicator: TA98, Metabolic Activation: RAT, LIVER, S-9, PHENOBARBITAL, Method: STANDARD PLATE) “active; positive”; (Strain/Indicator: TA100, Metabolic Activation: NONE, Method: STANDARD PLATE) “inactive; negative”; (Strain/Indicator: TA100, Metabolic Activation: RAT, LIVER, S-9, PHENOBARBITAL, Method: STANDARD PLATE) “inactive; negative”; (Strain/Indicator: TA1537, Metabolic Activation: NONE, Method: STANDARD PLATE) “inactive; negative”; (Strain/Indicator: TA1537, Metabolic Activation: RAT, LIVER, S-9, PHENOBARBITAL, Method: STANDARD PLATE) “inactive; negative”. For the same molecule, the mutagenic call runs as follows: (Strain/Indicator: TA1538, Metabolic Activation: NONE, Method: STANDARD PLATE) “active; positive”; (Strain/Indicator: TA1538, Metabolic Activation: RAT, LIVER, S-9, PHENOBARBITAL, Method: STANDARD PLATE) “active; positive”; (Strain/Indicator: TA1977, Metabolic Activation: NONE, Method: STANDARD PLATE) “inactive; negative”; (Strain/Indicator: TA1977, Metabolic Activation: RAT, LIVER, S-9, PHENOBARBITAL, Method: STANDARD PLATE) “inactive; negative”.
As to `Cn1c([N+](=O)[O-])nc2ccccc21`, under setting [1], the mutagenic call was “active; positive”.
For the molecule `Nc1ccc(-c2cc(Cl)c(N)c(Cl)c2)cc1Cl`, the mutagenic call by setting is: (Strain/Indicator: TA98/1,8-DNP6, Metabolic Activation: HAMSTER, LIVER, S-9, Method: PREINCUBATION) “active; positive”; (Strain/Indicator: TA98, Metabolic Activation: HAMSTER, LIVER, S-9, Method: PREINCUBATION) “active; positive”; (Strain/Indicator: TA98, Metabolic Activation: NONE, Method: PREINCUBATION) “active; positive”; (Strain/Indicator: TA100, Metabolic Activation: HAMSTER, LIVER, S-9, Method: PREINCUBATION) “active; positive”.
On to `O=NC1=Cc2nc3ccccn3c2NC1`, for which the mutagenic call by setting is: under setting [1], “active; positive”; (Strain/Indicator: TA98, Metabolic Activation: RAT, LIVER, CYTOSOL, AROCLOR 1254, Method: STANDARD PLATE) “active; positive”; (Strain/Indicator: TA98, Metabolic Activation: RAT, LIVER, MICROSOMES, AROCLOR 1254, Method: STANDARD PLATE) “inactive; negative”; (Strain/Indicator: TA98, Metabolic Activation: RAT, LIVER, S-9, AROCLOR 1254, Method: STANDARD PLATE) “active; positive”.
